{
  "source": "ChEMBL document CHEMBL2401674",
  "about": "“Inhibition of Candida albicans isocitrate lyase activity by cadiolides and synoilides from the ascidian Synoicum sp” (Bioorg Med Chem Lett, 2013)",
  "key": {"Isocitrate lyase": {"biological_target": "Isocitrate lyase (Candida albicans, UniProt Q9P8Q7)", "sequence (Q9P8Q7 whole entry)": "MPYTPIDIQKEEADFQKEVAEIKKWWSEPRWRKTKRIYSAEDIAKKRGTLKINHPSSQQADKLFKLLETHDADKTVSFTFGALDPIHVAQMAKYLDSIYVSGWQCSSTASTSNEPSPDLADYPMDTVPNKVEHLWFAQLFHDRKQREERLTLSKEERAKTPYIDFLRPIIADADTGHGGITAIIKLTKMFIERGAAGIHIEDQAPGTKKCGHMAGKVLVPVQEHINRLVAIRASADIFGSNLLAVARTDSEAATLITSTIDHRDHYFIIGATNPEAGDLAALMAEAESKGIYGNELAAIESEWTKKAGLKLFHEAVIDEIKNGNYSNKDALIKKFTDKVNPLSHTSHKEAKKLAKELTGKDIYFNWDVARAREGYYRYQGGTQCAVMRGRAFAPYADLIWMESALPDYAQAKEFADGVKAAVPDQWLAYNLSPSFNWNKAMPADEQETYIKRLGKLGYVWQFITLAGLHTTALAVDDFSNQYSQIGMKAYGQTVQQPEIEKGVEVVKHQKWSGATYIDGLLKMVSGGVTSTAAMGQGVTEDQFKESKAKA", "assay": "Inhibition of recombinant Candida albicans ATCC 10231 ICL using phenylhydrazine and isocitrate as substrate assessed as formation of glyoxylate phenylhydrazone after 30 mins by spectrophotometric analysis"}, "Candida albicans [1]": {"test_system": "Candida albicans", "assay": "Antifungal activity against Candida albicans SC5314 assessed as growth inhibition after 48 hrs in presence of 2% glucose", "type": "functional", "conditions": "SC5314, 48 h"}, "Candida albicans [2]": {"test_system": "Candida albicans", "assay": "Antifungal activity against Candida albicans SC5314 assessed as growth inhibition after 48 hrs in presence of 2% potassium acetate", "type": "functional", "conditions": "SC5314, 48 h"}, "Candida albicans [3]": {"test_system": "Candida albicans", "assay": "Antifungal activity against wild type Candida albicans SC5314 assessed as growth inhibition at 12.5 ug/ml after 3 days in presence of glucose", "type": "functional, organism-based"}, "Candida albicans [4]": {"test_system": "Candida albicans", "assay": "Antifungal activity against icl-deficient Candida albicans MRC10 assessed as growth inhibition at 12.5 ug/ml after 3 days in presence of sodium acetate", "type": "functional, organism-based"}, "Candida albicans [5]": {"test_system": "Candida albicans", "assay": "Downregulation of mRNA expression in icl-deficient Candida albicans MRC11 expressing ICL at 12.5 ug/ml after 4 hrs by RT-PCR analysis relative to control", "type": "functional"}, "Candida albicans [6]": {"test_system": "Candida albicans", "assay": "Antifungal activity against icl-deficient Candida albicans MRC11 expressing ICL assessed as growth inhibition at 12.5 ug/ml after 3 days in presence of glucose", "type": "functional, organism-based"}, "Candida albicans [7]": {"test_system": "Candida albicans", "assay": "Antifungal activity against wild type Candida albicans SC5314 assessed as growth inhibition at 12.5 ug/ml after 3 days in presence of sodium acetate", "type": "functional, organism-based"}, "Candida albicans [8]": {"test_system": "Candida albicans", "assay": "Antifungal activity against icl-deficient Candida albicans MRC11 expressing ICL assessed as growth inhibition at 12.5 ug/ml after 3 days in presence of sodium acetate", "type": "functional, organism-based"}, "Candida albicans [9]": {"test_system": "Candida albicans", "assay": "Downregulation of mRNA expression in wild type Candida albicans SC5314 at 12.5 ug/ml after 4 hrs by RT-PCR analysis relative to control", "type": "functional"}, "Candida albicans [10]": {"test_system": "Candida albicans", "assay": "Antifungal activity against icl-deficient Candida albicans MRC10 assessed as growth inhibition at 12.5 ug/ml after 3 days in presence of glucose", "type": "functional, organism-based"}},
  "note": "The source made the active and inactive calls. No cut-off for these calls is given here.",
  "data": [
    {"compound": "O=C(O)CC[N+](=O)[O-]", "values": [
      {"measurement": "IC50", "setting": "Isocitrate lyase", "result": 13.9, "unit": "µM"},
      {"measurement": "MIC", "setting": "Candida albicans [1]", "result": "> 200", "unit": "µg/mL"},
      {"measurement": "MIC", "setting": "Candida albicans [2]", "result": 200, "unit": "µg/mL"}
    ]},
    {"compound": "COc1c(Br)cc([C@H](O)C2=C(c3ccc(O)c(Br)c3)/C(=C/c3ccc(O)c(Br)c3)OC2=O)cc1Br", "note": "[CADIOLIDE G]", "values": [
      {"measurement": "IC50", "setting": "Isocitrate lyase", "result": 48.8, "unit": "µM"},
      {"measurement": "MIC", "setting": "Candida albicans [1]", "result": "> 200", "unit": "µg/mL"},
      {"measurement": "MIC", "setting": "Candida albicans [2]", "result": 50, "unit": "µg/mL"}
    ]},
    {"compound": "COC(=O)C1=C(c2cc(Br)c(O)c(Br)c2)C(=O)OC1=C(c1cc(Br)c(O)c(Br)c1)c1cc(Br)c(O)c(Br)c1", "note": "[CADIOLIDE I]", "values": [
      {"measurement": "IC50", "setting": "Isocitrate lyase", "result": 10.4, "unit": "µM"},
      {"measurement": "MIC", "setting": "Candida albicans [1]", "result": "> 200", "unit": "µg/mL"},
      {"measurement": "MIC", "setting": "Candida albicans [2]", "result": 50, "unit": "µg/mL"}
    ]},
    {"compound": "COc1ccc(/C=C2\\OC(=O)C([C@@H](O)c3cc(Br)c(OC)c(Br)c3)=C2c2cc(Br)c(O)c(Br)c2)cc1", "values": [
      {"measurement": "IC50", "setting": "Isocitrate lyase", "result": 17.2, "unit": "µM"},
      {"measurement": "MIC", "setting": "Candida albicans [1]", "result": "> 200", "unit": "µg/mL"},
      {"measurement": "MIC", "setting": "Candida albicans [2]", "result": 50, "unit": "µg/mL"}
    ]},
    {"compound": "COC(=O)/C(C(=O)c1cc(Br)c(O)c(Br)c1)=C(\\C(=O)OC)c1cc(Br)c(O)c(Br)c1", "values": [
      {"measurement": "IC50", "setting": "Isocitrate lyase", "result": 75.2, "unit": "µM"},
      {"measurement": "MIC", "setting": "Candida albicans [1]", "result": "> 200", "unit": "µg/mL"},
      {"measurement": "MIC", "setting": "Candida albicans [2]", "result": 100, "unit": "µg/mL"}
    ]},
    {"compound": "C[C@@H]1[C@H](O)[C@@H](C)/C=C/C=C/C=C/C=C/C=C/C=C/C=C/[C@H](O[C@@H]2O[C@H](C)[C@@H](O)[C@H](N)[C@@H]2O)C[C@@H]2O[C@](O)(C[C@@H](O)C[C@@H](O)[C@H](O)CC[C@@H](O)C[C@@H](O)CC(=O)O[C@H]1C)C[C@H](O)[C@H]2C(=O)O", "note": "[AMPHOTERICIN B]", "values": [
      {"measurement": "MIC", "setting": "Candida albicans [1]", "result": 1.56, "unit": "µg/mL"},
      {"measurement": "MIC", "setting": "Candida albicans [2]", "result": 1.56, "unit": "µg/mL"}
    ]},
    {"compound": "O=C1O/C(=C\\c2cc(Br)c(O)c(Br)c2)C(c2ccc(O)c(Br)c2)=C1C(=O)c1cc(Br)c(O)c(Br)c1", "note": "[CADIOLIDE E]", "values": [
      {"measurement": "growth inhibition (GI)", "setting": "Candida albicans [3]", "result": "inactive"},
      {"measurement": "growth inhibition (GI)", "setting": "Candida albicans [4]", "result": "Active"},
      {"measurement": "IC50", "setting": "Isocitrate lyase", "result": 7.62, "unit": "µM"},
      {"measurement": "fold change (FC)", "setting": "Candida albicans [5]", "result": 5},
      {"measurement": "MIC", "setting": "Candida albicans [1]", "result": "> 200", "unit": "µg/mL"},
      {"measurement": "growth inhibition (GI)", "setting": "Candida albicans [6]", "result": "inactive"},
      {"measurement": "growth inhibition (GI)", "setting": "Candida albicans [7]", "result": "Active"},
      {"measurement": "MIC", "setting": "Candida albicans [2]", "result": 12.5, "unit": "µg/mL"},
      {"measurement": "growth inhibition (GI)", "setting": "Candida albicans [8]", "result": "Active"},
      {"measurement": "fold change (FC)", "setting": "Candida albicans [9]", "result": 5},
      {"measurement": "growth inhibition (GI)", "setting": "Candida albicans [10]", "result": "inactive"}
    ]},
    {"compound": "COC(=O)/C(C(=O)c1cc(Br)c(O)c(Br)c1)=C(\\C(=O)OC)c1ccc(O)c(Br)c1", "values": [
      {"measurement": "IC50", "setting": "Isocitrate lyase", "result": 122, "unit": "µM"},
      {"measurement": "MIC", "setting": "Candida albicans [1]", "result": "> 200", "unit": "µg/mL"},
      {"measurement": "MIC", "setting": "Candida albicans [2]", "result": 100, "unit": "µg/mL"}
    ]}
  ]
}
